Laboratory results from patent US12655116B2, “Substituted isophthalic acid diamides” (Bayer Aktiengesellschaft, priority 2020, dated 2026).

Legend:
ABUTH [1] = assay: Pre-emergence herbicidal action against ABUTH; type: in vivo, Abutilon theophrasti
In short: (§1)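 Visual rating at 3 weeks vs untreated pots; 0–100% scale, 100% = plants died. Treatment: aqueous WP/EC spray onto covering soil, 600–800 l/ha, 0.2% wetter, seeds in sandy loam.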

ALOMY [2] = assay: Pre-emergence herbicidal action against ALOMY; type: in vivo, Alopecurus myosuroides; details: 80 g/ha, pre-emergence, scored visually after 3 weeks vs untreated controls (100% = plants have died, 0% = like control plants)
In short: as §1

AMARE [3] = assay: Pre-emergence herbicidal action against AMARE; type: in vivo, Amaranthus retroflexus
In short: as §1

ECHCG [4] = assay: Pre-emergence herbicidal action against ECHCG; type: in vivo, Echinochloa crus-galli
In short: as §1

POLCO = assay: Pre-emergence herbicidal action against POLCO; type: in vivo, Polygonum convolvulus; details: dosage 80 g/ha
In short: as §1

SETVI [5] = assay: Pre-emergence herbicidal action against SETVI; type: in vivo, Setaria viridis; details: dosage 80 g/ha
In short: as §1

STEME [6] = assay: Pre-emergence herbicidal action against STEME; type: in vivo, Stellaria media
In short: as §1

VIOTR [7] = assay: Pre-emergence herbicidal action against VIOTR; type: in vivo, Viola tricolor
In short: as §1

DIGSA [8] = assay: Pre-emergence herbicidal action against DIGSA; type: in vivo, Digitaria sanguinalis
In short: as §1

ABUTH [9] = assay: Post-emergence herbicidal action against ABUTH; type: in vivo, Abutilon theophrasti; details: visual assessment about 3 weeks after treatment vs untreated controls
In short: (§2)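 Greenhouse pot plants in sandy loam were sprayed at the one-leaf stage, 2 to 3 weeks after sowing, with WP or EC formulations as aqueous suspension or emulsion (600 to 800 l/ha water, 0.2% wetting agent). About 3 weeks later, damage was scored visually against untreated controls as % action (100% = dead, 0% = like control).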

ALOMY [10] = assay: Post-emergence herbicidal action against ALOMY; type: in vivo, Alopecurus myosuroides; details: dosage 20 g/ha, visual assessment about 3 weeks after treatment vs untreated controls
In short: as §2

AMARE [11] = assay: Post-emergence herbicidal action against AMARE; type: in vivo, Amaranthus retroflexus; details: 20 g/ha, visual assessment about 3 weeks after treatment, 100% = plants have died, 0% = like control plants
In short: as §2

AVEFA = assay: Post-emergence herbicidal action against AVEFA; type: in vivo, Avena fatua; details: 20 g/ha, visual assessment about 3 weeks after treatment, 100% = plants have died, 0% = like control plants
In short: as §2

ECHCG [12] = assay: Post-emergence herbicidal action against ECHCG; type: in vivo, Echinochloa crus-galli
In short: as §2

LOLRI = assay: Post-emergence herbicidal action against LOLRI; type: in vivo, Lolium rigidum; details: dosage 20 g/ha
Method: Seeds of monocotyledonous and dicotyledonous weed and crop plants are laid out in sandy loam soil in wood-fiber pots, covered with soil and cultivated in a greenhouse under good growth conditions. 2 to 3 weeks after sowing, the test plants are treated at the one-leaf stage. The compounds of the invention, formulated in the form of wettable powders (WP) or as emulsion concentrates (EC), are then sprayed onto the green parts of the plants in the form of an aqueous suspension or emulsion at a water application rate equivalent to 600 to 800 l/ha, with addition of 0.2% wetting agent. After the test plants have been left to stand in the greenhouse under optimal growth conditions for about 3 weeks, the action of the preparations is assessed visually in comparison to untreated controls (herbicidal action in percent (%): 100% activity=the plants have died, 0% activity=like control plants). […] The tables below illustrate, in an illustrative manner, the post-emergence herbicidal action of the compounds of the invention, the herbicidal activity being stated in percent.

MATIN = assay: Post-emergence herbicidal action against MATIN; type: in vivo, Matricaria inodora; details: dosage 20 g/ha
In short: as §2

PHBPU = assay: Post-emergence herbicidal action against PHBPU; type: in vivo, Pharbitis purpurea; details: dosage 20 g/ha
In short: as §2

SETVI [13] = assay: Post-emergence herbicidal action against SETVI; type: in vivo, Setaria viridis
In short: as §2

STEME [14] = assay: Post-emergence herbicidal action against STEME; type: in vivo, Stellaria media
In short: as §2

VIOTR [15] = assay: Post-emergence herbicidal action against VIOTR; type: in vivo, Viola tricolor
In short: as §2

DIGSA [16] = assay: Post-emergence herbicidal action against DIGSA; type: in vivo, Digitaria sanguinalis
In short: as §2

[17] = 80 g/ha, scored visually after 3 weeks vs untreated controls (100% = plants have died, 0% = like control plants)

CCNC(=O)c1c(C(F)F)ccc(C(=O)Nc2nnco2)c1Cl [Example 5-123]
90%: Pre-emergence action against ECHCG in % (ECHCG [4]; 20 g/ha) | Pre-emergence action against STEME in % (STEME [6]; dosage 20 g/ha) | Pre-emergence action against STEME in % (STEME [6]; dosage 80 g/ha) | Pre-emergence action against VIOTR in % (VIOTR [7]; dosage 20 g/ha) | Post-emergence action against ABUTH in % (ABUTH [9]; dosage 5 g/ha) | Post-emergence action against ABUTH in % (ABUTH [9]; dosage 20 g/ha) | Post-emergence action at 20 g/ha against AMARE in % (AMARE [11]) | Post-emergence action against ECHCG in % (ECHCG [12]; dosage 5 g/ha) | Post-emergence action against ECHCG in % (ECHCG [12]; dosage 20 g/ha) | Post-emergence action against STEME in % (STEME [14]; 20 g/ha) | Post-emergence action against STEME in % (STEME [14]; dosage 5 g/ha) | Post-emergence action against VIOTR in % (VIOTR [15]; 20 g/ha) | Post-emergence action against DIGSA in % (DIGSA [16]; 5 g/ha) | Post-emergence action against DIGSA (DIGSA [16]; 20 g/ha)
100%: Pre-emergence action against ABUTH (herbicidal activity) (ABUTH [1]; [17]) | Pre-emergence action against ABUTH (herbicidal activity in percent) (ABUTH [1]; dosage 20 g/ha, scored visually after 3 weeks vs untreated controls, 100% = plants have died, 0% = like control plants) | Pre-emergence action against AMARE in % (AMARE [3]; 20 g/ha, scored visually after 3 weeks vs untreated controls, 100% = plants have died, 0% = like control plants) | Pre-emergence action against AMARE in % (AMARE [3]; [17]) | Pre-emergence action against ECHCG in % (ECHCG [4]; 80 g/ha) | Pre-emergence action against SETVI in % (SETVI [5]) | Pre-emergence action against VIOTR in % (VIOTR [7]; dosage 80 g/ha) | Pre-emergence action against DIGSA in % (DIGSA [8]; dosage 20 g/ha) | Pre-emergence action against DIGSA in % (DIGSA [8]; dosage 80 g/ha)
80%: Pre-emergence action against ALOMY (herbicidal activity) (ALOMY [2]) | Pre-emergence action against POLCO in % (POLCO) | Post-emergence action against ALOMY in % (ALOMY [10]) | Post-emergence action at 20 g/ha against AVEFA in % (AVEFA) | Post-emergence action against LOLRI in % (LOLRI) | Post-emergence action against MATIN in % (MATIN) | Post-emergence action against PHBPU in % (PHBPU) | Post-emergence action against SETVI in % (SETVI [13]; dosage 5 g/ha) | Post-emergence action against SETVI in % (SETVI [13]; dosage 20 g/ha) | Post-emergence action against VIOTR in % (VIOTR [15]; 5 g/ha)
